Data on 54 compounds can be found in ChEMBL document CHEMBL1156829 (Proc Natl Acad Sci U S A, 2008).

For data set [1], the system named is Plasmodium falciparum. As to the kind of experiment: NOVARTIS: Inhibition of Plasmodium falciparum W2 (drug-resistant) proliferation in erythrocyte-based infection assay. As to conditions: Plasmodium falciparum, W2; read-out: EC50. In kind it is functional, organism-based.
Data set [2] is described as follows: NOVARTIS: Cytotoxicity against human hepatocellular carcinoma cell line (Huh7). The data set is classed as toxicity, cell-based, Huh-7. Particulars: Huh7 cells (hepatocellular carcinoma cell line).
Data set [3] concerns Plasmodium falciparum. As to the kind of experiment: NOVARTIS: Inhibition of Plasmodium falciparum 3D7 (drug-susceptible) proliferation in erythrocyte-based infection assay. In kind it is functional, organism-based. Particulars: Plasmodium falciparum, 3D7.

As usually defined, the EC50 is the concentration needed to bring the measured effect to its halfway point. As a reminder, the CC50 is the concentration that lowers cell viability or growth by half. A higher CC50 goes with lower toxicity to the cells. As for `COc1cccc2c1[C@@H](OC)[C@@]13O[C@]1(C2=O)[C@H](O)[C@@H](C)[C@](O)(C(=O)[C@@H]1O[C@H]1C)[C@H]3O`, the EC50 in the data set on Plasmodium falciparum [1] came out at 226 nM; in the data set on Plasmodium falciparum [3], 264 nM. Moreover, the CC50 in data set [2] came to 2820 nM.
Taken in the same sequence, the figures for `CCC(c1nc2ccccc2c(=O)n1-c1ccc(F)c(Cl)c1)N(CCc1ccccc1)C(=O)COc1ccccc1` (configuration not stated) were above 492 nM, 1190 nM and above 6280 nM.
On to `c1cncc(-c2cc(N3CCc4ccccc4C3)nc(-c3ccncc3)n2)c1`, for which the values for the EC50 in the data set on Plasmodium falciparum [1] and with Plasmodium falciparum [3] were 794 nM and 602 nM, respectively. In data set [2], this compound showed a CC50 above 10000 nM.
As for `c1cc2cc3ccc(OCCN4CCCCC4)cc3nc2cc1OCCN1CCCCC1`, the EC50 came out at 772 nM with Plasmodium falciparum [1] and 348 nM with Plasmodium falciparum [3]. The compound further showed a 50% cytotoxic concentration (CC50) in data set [2] above 10000 nM.
On to `O=C(CCC1CCCC1)NCCCCNc1ccnc2cc(Cl)ccc12`, for which the EC50 worked out at 175 nM with Plasmodium falciparum [1] and 486 nM in the data set with Plasmodium falciparum [3]. Further, the CC50 in data set [2] stood at 2270 nM.
Taken in the same sequence, the figures for `COc1ccc(OC)c(-c2ccc(O)c(CNCC(C)C)c2)c1` were 773 nM, 950 nM and above 10000 nM.
For `COc1ccccc1N1CCN([C@@H]2CCN(Cc3cccnc3)C[C@@H]2CCC(=O)N2CCCC2)CC1` the same measures were 810 nM, 1080 nM and above 10000 nM.
Take `O=C(Nc1ccc(Cl)c(C(F)(F)F)c1)NC1CC2CCC(C1)N2C1CCCC1` (configuration not stated): the figures for the half-maximal effective concentration (EC50) in the data set on Plasmodium falciparum [1] and in the data set on Plasmodium falciparum [3] were 810 nM and 541 nM, respectively. Further, the CC50 in data set [2] is above 10000 nM.
Turning to `N#C/C(=C\c1ccccc1OCc1ccc(Cl)cc1Cl)c1nc2ccccc2[nH]1`, the EC50 with Plasmodium falciparum [1] is above 772 nM; with Plasmodium falciparum [3], 348 nM. Besides, the CC50 in data set [2] was above 10000 nM.
As to `CCCOc1ccc(C=Nc2ccc(S(=O)(=O)Nc3ccccn3)cc2)cc1`, the figures for the EC50 in the data set on Plasmodium falciparum [1] and in the data set with Plasmodium falciparum [3] were 813 nM and 1410 nM, respectively. Also, the 50% cytotoxic concentration (CC50) in data set [2] was above 10000 nM.
For `CCNC(=O)NCCSc1nc(-c2ccc(OC)cc2)c(-c2ccc(OC)cc2)n1CC` the same measures were above 812 nM, above 1660 nM and above 10000 nM.
For `CC(C)CNC(=O)c1cnc(NCCCN(C)C)nc1NCC1CCCCC1` the same measures were 815 nM, 334 nM and above 10000 nM.
As to `COC(=O)c1cccc(NC(=O)/C(=C\c2cccc([N+](=O)[O-])c2)NC(=O)c2ccccc2OC)c1`, the EC50 in the data set with Plasmodium falciparum [1] is above 814 nM; in the data set with Plasmodium falciparum [3], above 1670 nM. The compound also had a CC50 in data set [2] above 10000 nM.
For `O=C(CSc1nc2ccccc2c(=O)n1C1CC1)Nc1cc(C(F)(F)F)ccc1Cl` the same measures were 8110 nM, 719 nM and above 100000 nM.
Consider `Cc1nc(-c2ccccc2)nc(C(=O)N2CCN(S(=O)(=O)/C=C/c3ccccc3)C(C)C2)c1C(=O)OCC(C)C` (configuration not stated), for which the EC50 with Plasmodium falciparum [1] was determined as 785 nM; in the data set with Plasmodium falciparum [3] it was 931 nM. In data set [2], this compound showed a 50% cytotoxic concentration (CC50) above 10000 nM.
Taken in the same sequence, the figures for `Cc1csc(NC(=O)C2c3ccccc3C(=O)N(CC(C)C)C2c2cccs2)n1` (configuration not stated) were 785 nM, 611 nM and above 10000 nM.
For `COc1cc(NC(=O)Cn2ncc3c(=O)oc4ccccc4c32)cc(OC)c1OC` the same measures were 7830 nM, above 12500 nM and above 100000 nM.
Taken in the same sequence, the figures for `Cc1ccc(S(=O)(=O)N(C)CCCNc2ccnc3cc(Cl)ccc23)cc1` were 314 nM, 380 nM and 4010 nM.
On to `c1ccc2c(c1)ccc[n+]2CCCCCC[n+]1cccc2ccccc21`, for which the EC50 in the data set with Plasmodium falciparum [1] was 780 nM; with Plasmodium falciparum [3], 406 nM. The compound also returned a CC50 in data set [2] above 10000 nM.
As for `Cc1nc2cc(-c3ccc(F)cc3)nn2c(NCCCn2ccnc2)c1C`, the results for the EC50 with Plasmodium falciparum [1] and with Plasmodium falciparum [3] were 776 nM and 990 nM, respectively. Besides, the CC50 in data set [2] was above 10000 nM.
Taken in the same sequence, the figures for `O=C1NCCN1CCNS(=O)(=O)c1cc(C(F)(F)F)cc(C(F)(F)F)c1` were 786 nM, 1200 nM and above 10000 nM.
For `CCOc1ccc(NCc2ccc(O)c3ncccc23)cc1` the same measures were above 4370 nM, 7610 nM and above 55600 nM.
Taken in the same sequence, the figures for `COC(=O)C1=CNC=C(C(=O)OC)C1c1cc(Br)ccc1OC` were 4520 nM, above 12200 nM and above 57800 nM.
Consider `CCCCCCN(C(=O)c1ccc(CC)cc1)C(CC)c1nc2ccccc2c(=O)n1-c1cccc(Cl)c1` (configuration not stated), for which the concentration giving a half-maximal response (EC50) was 782 nM in the data set on Plasmodium falciparum [1] and 781 nM with Plasmodium falciparum [3]. Moreover, the CC50 in data set [2] is above 10000 nM.
Taken in the same sequence, the figures for `CC(C)CN(CC(=O)Nc1cc(C(C)(C)C)nn1-c1ccccc1)C(=O)Cc1cccs1` were 781 nM, 1300 nM and above 10000 nM.
Consider `COc1ccc(NC2=CC(=O)CC(c3ccccc3)C2)c(OC)c1` (configuration not stated), for which the EC50 was 7740 nM with Plasmodium falciparum [1] and above 12500 nM in the data set with Plasmodium falciparum [3]. In data set [2], this compound showed a half-maximal cytotoxic concentration (CC50) above 100000 nM.
For `COc1cccc(OC)c1C(=O)Oc1cccc2ccc(C)nc12`, the values for the EC50 in the data set with Plasmodium falciparum [1] and in the data set on Plasmodium falciparum [3] were 788 nM and above 1250 nM, respectively. In data set [2], this compound registered a CC50 above 10000 nM.
Taken in the same sequence, the figures for `O=C(CCl)NCCCN(C(=O)Nc1ccc(Cl)c(Cl)c1)c1ccccc1` were 74 nM, 217 nM and above 931 nM.
For `O=[N+]([O-])c1ccc(Cl)c(-c2ccc(C=NNc3nc4ccccc4[nH]3)o2)c1` the same measures were 801 nM, 946 nM and above 10000 nM.
Taken in the same sequence, the figures for `COc1ccc(C=Cc2ccc3ccccc3[n+]2C)cc1` were 7930 nM, above 5370 nM and above 100000 nM.
As to `CCCNC(=O)c1cc(NC(=O)c2cc(C(F)(F)F)cc(C(F)(F)F)c2)ccc1N1CCCCC1`, the half-maximal effective concentration (EC50) was above 816 nM with Plasmodium falciparum [1] and above 1560 nM with Plasmodium falciparum [3]. Further, in data set [2], it took 10200 nM to reach half-maximal cytotoxicity (CC50).
In the case of `COc1ccc(OC)c(-c2ccc(O)c(CNCCc3ccccc3F)c2)c1`, the EC50 is 790 nM with Plasmodium falciparum [1] and 1140 nM with Plasmodium falciparum [3]. Also, the CC50 in data set [2] is above 10000 nM.
On to `CCCCCCN(C(=O)c1cccc(C(F)(F)F)c1)C(CC)c1nc2ccccc2c(=O)n1-c1ccccc1OC` (configuration not stated), for which the figures for the EC50 in the data set with Plasmodium falciparum [1] and in the data set with Plasmodium falciparum [3] were 790 nM and 793 nM, respectively. The CC50 in data set [2] is above 10000 nM.
Taken in the same sequence, the figures for `COc1ccc(CCNC(=O)Cn2c(C)cc3ccccc3c2=O)cc1OC` were 796 nM, above 1540 nM and above 10000 nM.
Taken in the same sequence, the figures for `COC(=O)C(Nc1ccc(Cl)c(Cl)c1)(c1cc(C)c(O)c(C)c1)C(F)(F)F` (configuration not stated) were above 789 nM, above 1390 nM and above 10000 nM.
In the case of `O=C1CC(=O)Nc2cc(S(=O)(=O)NC3CCCCCCC3)ccc2N1`, the figures for the EC50 in the data set on Plasmodium falciparum [1] and with Plasmodium falciparum [3] were above 796 nM and above 1250 nM, respectively. The compound also showed a CC50 in data set [2] above 10000 nM.
For `Cn1c(=O)[nH]c2c(c1=O)n(C)c(=O)n2C` the same measures were above 799 nM, above 957 nM and above 10000 nM.
Taken in the same sequence, the figures for `CC(=O)N(C1=C(N2CCOCC2)C(=O)c2ccccc2C1=O)c1ccc(F)cc1` were 14 nM, 12.9 nM and 173 nM.
For `Cc1cccnc1NC(=O)CCCC(=O)O`, the EC50 in the data set with Plasmodium falciparum [1] is 788 nM; in the data set with Plasmodium falciparum [3], above 1070 nM. This compound also returned a half-maximal cytotoxic concentration (CC50) in data set [2] above 10000 nM.
Consider `COc1ccc(CCNc2nc(NCCC3CCCN3C)ncc2C(=O)NCc2ccccc2)cc1OC` (configuration not stated), for which the concentration giving a half-maximal response (EC50) was above 802 nM in the data set with Plasmodium falciparum [1] and 1060 nM with Plasmodium falciparum [3]. This compound yielded a CC50 in data set [2] above 10000 nM.
On to `Cn1c2ccccc2c2nnc(NN=Cc3ccccn3)nc21`, for which the EC50 in the data set with Plasmodium falciparum [1] was 793 nM; in the data set on Plasmodium falciparum [3], 866 nM. This compound showed a CC50 in data set [2] above 10000 nM.
Consider `CCCn1c(C=NNc2nc3ccccc3[nH]2)nc2ccccc21`, for which the EC50 with Plasmodium falciparum [1] worked out at 5110 nM; in the data set on Plasmodium falciparum [3], 5560 nM. For the same compound, the CC50 in data set [2] amounted to 62800 nM.
For `O=C(/C=C/c1ccccc1)NNC(=O)c1cccnc1` the same measures were above 750 nM, above 1250 nM and above 9450 nM.
With `COc1ccc(-c2c[n+](-c3ccccc3)c3n2CCS3)cc1`, the EC50 was found to be 784 nM in the data set with Plasmodium falciparum [1] and 778 nM in the data set with Plasmodium falciparum [3]. For the same compound, in data set [2], the CC50 was above 10000 nM.
Take `COc1cc(NC(C)CCCN(Cc2ccc(F)cc2)C(=O)CCc2ccccc2)c2ncccc2c1` (configuration not stated): the half-maximal effective concentration (EC50) turned out to be 361 nM in the data set on Plasmodium falciparum [1] and 1400 nM in the data set on Plasmodium falciparum [3]. This compound returned a CC50 in data set [2] of 4620 nM.
For `CCCCc1ccc(NC(C)=O)cc1` the same measures were 334 nM, 214 nM and 4210 nM.
Take `CCCC(=O)N1CCN(C(=O)c2nc(-c3ccccc3)nc(CCC)c2C(=O)OCC)CC1C` (configuration not stated): the EC50 with Plasmodium falciparum [1] came out at 774 nM; in the data set with Plasmodium falciparum [3], 1200 nM. For the same compound, the CC50 in data set [2] is above 10000 nM.
Taken in the same sequence, the figures for `CC1(C)CC(NC(=O)C(=O)NC2CC(C)(C)N(O)C(C)(C)C2)CC(C)(C)N1O` were above 784 nM, above 1300 nM and above 10000 nM.
Turning to `CN(C)c1ccc(/C=C/c2cc(/C=C/c3ccc(N(C)C)cc3)[n+]3ccccc3n2)cc1`, the EC50 came to 811 nM with Plasmodium falciparum [1] and 1340 nM with Plasmodium falciparum [3]. Further, the CC50 in data set [2] is above 10000 nM.
Turning to `CCCCOc1ccc(-c2nnc(-c3ccc(C)cc3)n2-c2ccccc2)cc1`, the concentration for a half-maximal effect (EC50) in the data set with Plasmodium falciparum [1] was above 777 nM; with Plasmodium falciparum [3] it was above 1200 nM. The compound further yielded a CC50 in data set [2] above 10000 nM.
With `O=C(Oc1ccccc1N1C(=O)C2C3C=CC(C3)C2C1=O)c1ccc([N+](=O)[O-])cc1` (configuration not stated), the values for the concentration giving a half-maximal response (EC50) in the data set on Plasmodium falciparum [1] and with Plasmodium falciparum [3] were 8070 nM and above 9740 nM, respectively. For the same compound, the CC50 in data set [2] was above 100000 nM.
On to `Cc1ccc2ncnc(Nc3cccc(C(F)(F)F)c3)c2c1`, for which the 50% effective concentration (EC50) was 2170 nM in the data set on Plasmodium falciparum [1] and 947 nM in the data set on Plasmodium falciparum [3]. Moreover, the midpoint of cytotoxicity in data set [2], the CC50, lay at 27900 nM.
Taken in the same sequence, the figures for `CC(C)c1ccc(C2N(c3ccccc3)C3(C(=O)c4ccccc4C3=O)C(c3ccc(C(C)C)cc3)C23C(=O)c2ccccc2C3=O)cc1` (configuration not stated) were 792 nM, 802 nM and above 10000 nM.
Taken in the same sequence, the figures for `Cn1c(COc2ccc(Cl)cc2Cl)[n+](C)c2ccccc21` were 773 nM, 261 nM and above 10000 nM.
